The source of these data is patent publication US20130310374A1, “Substituted Imidazoquinoline Derivatives” (PIRAMAL ENTERPRISES LIMITED`, priority 2010, published 2013).

In one experiment the test system is PC3. As to the kind of experiment: Cytotoxicity propidium iodide assay, PC3. The class given is cell-based, human. As to conditions: Homo sapiens, PC-3; for IC50: PC3 (prostate), 48 hours treatment, read-out: IC50 Values in μM, C2a. The procedure: (§1) The assay was designed as in the reference, Anticancer Drugs, 2002, 13, 1-8, the disclosure of which is incorporated herein by reference for the teaching of the assay.
(§2) Cells from cell lines (ATCC) as mentioned in the table given below were seeded at a density of 3000 cells/well in a white opaque 96-well plate. Following incubation at 37° C./5% CO2 for a period of 18-24 hours, the cells were treated with various concentrations (stock solution was prepared in DMSO and subsequent dilutions were made in media as per ATCC guidelines) of the compounds of the present invention for a period of 48 hours. At the end of treatment, the culture medium was discarded, the cells were washed with 1×PBS and 200 μL of […] propidium iodide was added to each well. The plates were frozen at 70° C. overnight. For analysis, the plates were warmed to RT, allowed to thaw and were read in PoleStar fluorimeter with the fluorescence setting. The percentage of viable cells in the non-treated set of wells was considered to be 100 and the percentage viability following treatment was calculated accordingly. IC50 values were calculated from graphs plotted using these percentages. IC50 values for certain compounds of present invention are depicted in Table 1 and % Inhibition of certain compounds of present invention are depicted in Table 2.

Another experiment has as its system MDA MB 468. As to the kind of experiment: Cytotoxicity propidium iodide assay, MDA MB 468. The class given is cell-based. Particulars: Homo sapiens; MDA MB 468 (breast), 48 hours treatment; read-out: IC50 Values in μM, C3b. The procedure: as §1, §2
The subject of the next experiment is MDA MB 231. The experiment is described as follows: Cytotoxicity propidium iodide assay, MDA MB 231. The class given is cell-based. Particulars: Homo sapiens; MDA MB 231 (breast), 48 hours treatment; read-out: IC50 Values in μM, C3a. The procedure:
as §1
as §2, with “The plates were frozen at 70° C. overnight.” left out

Another experiment has as its system BxPC3. The experiment is described as follows: Cytotoxicity propidium iodide assay, BxPC3. In kind it is cell-based. Particulars: Homo sapiens, BXPC-3; BxPC3 (pancreatic), 48 hours treatment; read-out: IC50 Values in μM, C4c. Here is the method:
as §1, §2

The next experiment deals with MCF7. As to the kind of experiment: Cytotoxicity propidium iodide assay, MCF7. The class given is cell-based. As to conditions: Homo sapiens; MCF7 (breast), 48 hours treatment; read-out: IC50 Values in μM, C3d. The procedure: as §1, §2
The next experiment relates to BT 549. As to the kind of experiment: Cytotoxicity propidium iodide assay, BT 549. The class given is cell-based. As to conditions: Homo sapiens; BT 549 (breast), 48 hours treatment; read-out: IC50 Values in μM, C3c. Here is the method: as §1, §2
A further experiment has as its system AsPC 1. The experiment is described as follows: Cytotoxicity propidium iodide assay, AsPC 1. The class given is cell-based. Particulars: Homo sapiens, ASPC1; AsPC 1 (pancreatic), 48 hours treatment; read-out: IC50 Values in μM, C4b. Here is the method:
as §1
as §2, with “The plates were frozen at 70° C. overnight.” left out

The subject of the next experiment is PANC 1. The experiment is described as follows: Cytotoxicity propidium iodide assay, PANC 1. The class given is cell-based. As to conditions: Homo sapiens; PANC 1 (pancreatic), 48 hours treatment; read-out: IC50 Values in μM, C4a. The procedure:
as §1, §2

The subject of another experiment is A2780. As to the kind of experiment: Cytotoxicity propidium iodide assay, A2780. The class given is cell-based. As to conditions: Homo sapiens; for IC50: A2780 (ovarian), 48 hours treatment, read-out: IC50 Values in μM, C1a. The procedure: as §1, §2
The subject of another experiment is PI3K/mTOR pathway. The experiment is described as follows: Western blot analysis in A2780 ovarian cancer cell line. The class given is cell-based. As to conditions: A2780 cells treated for 1 hour; FIG. 1A-1E. The procedure: Protocol for Western Blot Analysis
A2780 ovarian cancer cell line (ATCC) were grown to approximately 70% confluence in 100-mm tissue culture dishes and then treated for 1 hour with […] compounds of Example 2, 3, 5, 16, 19, 55 and 59. Total protein was extracted using cell lysis buffer (NaCl […], NP40 0.67%, Tris-Cl, pH 7.5, 67 mM) containing protease inhibitors and phosphatase inhibitors (Beta-glycerol phosphate 40 mM, DTT 1 mM, NaF 0.4 mM, Sodium-Orthovanadate 0.4 mM) at 4° C. for 1 hour. Cell lysates were then centrifuged at 2×10^4 g for 10 minutes at 4° C., and the protein concentration of the supernatant was quantified using the Bradford's method (BioRad, USA). For SDS-PAGE, 50 μg protein was loaded in SDS-PAGE, transferred to a polyvinylidene difluoride membrane (Bio-Rad, USA) and blocked with 5 mL buffer [5% skim milk and 0.1% Tween] for 1 hour 30 minutes. Membrane were probed with primary antibody (all primary antibodies were from cell signaling with 1:1000 in TBST solution) of respective protein at 4° C. overnight. Peroxidase-labeled anti-rabbit or anti-mouse antibodies (Santacruze, USA) were used as the secondary antibody. Actin and respective whole protein levels were used as the control for protein loading. Protein antigens were detected using Chemiluminescent Substrate (Thermo scientific, USA) and exposed on Kodak station.
(In general: In western blotting, separated proteins are transferred to a membrane and probed.)

The next experiment deals with K562. The experiment is described as follows: Cytotoxicity propidium iodide assay, K562. The class given is cell-based. As to conditions: K562 (CML), 48 hours treatment, read-out: IC50 Values in μM, C6a. Here is the method: as §1, §2
The next experiment concerns LN229. As to the kind of experiment: Cytotoxicity propidium iodide assay, LN229. In kind it is cell-based. Particulars: LN229 (glioblastoma), 48 hours treatment; read-out: IC50 Values in μM, C5a. Here is the method:
as §1, §2

A further experiment has as its system LN18. As to the kind of experiment: Cytotoxicity propidium iodide assay, LN18. In kind it is cell-based. Particulars: LN18 (glioblastoma), 48 hours treatment; read-out: IC50 Values in μM, C5b. The procedure:
as §1, §2

Another experiment deals with KU812/SR. As to the kind of experiment: Cytotoxicity propidium iodide assay, KU812/SR. In kind it is cell-based. As to conditions: KU812/SR (CML), 48 hours treatment; read-out: IC50 Values in μM, C6c. Here is the method: as §1, §2
Another experiment has as its system KCL22/SR. As to the kind of experiment: Cytotoxicity propidium iodide assay, KCL22/SR. The class given is cell-based. Particulars: KCL22/SR (CML), 48 hours treatment; read-out: IC50 Values in μM, C6e. The procedure: as §1, §2

Like-named read-outs stand apart in the source and are kept apart here.

For orientation: IC50 means the concentration that gives 50% inhibition. `Cn1c(=O)n(-c2ccc(C(F)(F)F)nc2Cl)c2c3cc(-c4cnc(N)c(C(F)(F)F)c4)ccc3ncc21` [Example 59, 8-(6-Amino-5-(trifluoromethyl)pyridin-3-yl)-1-(2-chloro-6-(trifluoromethyl)pyridin-3-yl)-3-methyl-1H-imidazo[4,5-c]quinolin-2(3H)-one]: the IC50 was 0.018 µM in the experiment with PC3; 0.07 µM in the experiment with MDA MB 468; < 0.01 µM in the experiment on MDA MB 231; < 0.01 µM with BxPC3; 0.013 µM in the experiment with MCF7; 0.04 µM in the experiment with BT 549. Besides, the values for the half-maximal inhibitory concentration (IC50) in the experiment on AsPC 1, in the experiment on PANC 1 and in the experiment on A2780 were 0.042 µM, 0.017 µM and < 0.01 µM, respectively. For the same molecule, in the experiment with PI3K/mTOR pathway, the “Akt, S6 and 4EBP1 phosphorylation (Western blot)” value was “inhibit Akt, S6 and 4EBP1 phosphorylation”.
Take `Cn1c(=O)n(-c2ccc(C(C)(C)C#N)nc2)c2c3cc(-c4ccc5ncccc5c4)ccc3ncc21` [Example 5, 2-Methyl-2-(5-(3-methyl-2-oxo-8-(quinolin-6-yl)-2,3-dihydro-1H-imidazo[4,5-c]quinolin-1-yl)pyridin-2-yl)propanenitrile]: the IC50 with PC3 is 0.38 µM; in the experiment on A2780, 0.08 µM. For the same molecule, the “Akt, S6 and 4EBP1 phosphorylation (Western blot)” value in the experiment with PI3K/mTOR pathway was “inhibit Akt, S6 and 4EBP1 phosphorylation”.
Consider `CC(C)(C#N)c1ccc(-n2c(=O)n(CC#N)c3cnc4ccc(-c5cnc6ccccc6c5)cc4c32)cn1` [Example 17, 2-(5-(3-(Cyanomethyl)-2-oxo-8-(quinolin-3-yl)-2,3-dihydro-1H-imidazo[4,5-c]quinolin-1-yl)pyridin-2-yl)-2-methylpropanenitrile], for which the concentration for half-maximal inhibition (IC50) with PC3 came to 0.17 µM; with MDA MB 468, 0.45 µM; with MDA MB 231, 0.17 µM; in the experiment on BxPC3 it was 0.085 µM; with MCF7 it was 0.25 µM; in the experiment on BT 549 it was 0.37 µM. The IC50 is 0.24 µM in the experiment with AsPC 1, 0.23 µM in the experiment on PANC 1 and 0.065 µM in the experiment with A2780.
For the molecule “1-(6-Chloro-2,4′-bipyridin-3-yl)-3-methyl-8-(pyridin-3-yl)-1H-imidazo[4,5-c]quinolin-2(3H)-one [Example 72]”, the IC50 in the experiment on K562 turned out to be 0.0144 µM; in the experiment with LN229 it was 0.44 µM; in the experiment on LN18, 0.992 µM; with KU812/SR it was 1.14 µM; in the experiment with KCL22/SR it was 0.23 µM.
In general, inhibition refers to the share of the control response that was lost under treatment. Regarding `Cn1c(=O)n(-c2ccc(Cl)nc2C(F)(F)F)c2c3cc(-c4cccnc4)ccc3ncc21` [Example 63, 1-(6-Chloro-2-(trifluoromethyl)pyridin-3-yl)-3-methyl-8-(pyridin-3-yl)-1H-imidazo[4,5-c]quinolin-2 (3H)-one], the inhibition at 1 µM was 53% in the experiment with PC3 (PC3, 1 μM, 48 hours, read-out: % Inhibition at 1 μM, C2a) and 88% in the experiment on A2780 (A2780, 1 μM, 48 hours, read-out: % Inhibition at 1 μM, C1a). Also, the IC50 was 0.224 µM in the experiment on K562 (Homo sapiens), 4 µM in the experiment on MCF7 and 5.6 µM with BT 549.
Take `Cn1c(=O)n(-c2ccc3ncccc3c2)c2c3cc(-c4cnc(N)c(C(F)(F)F)c4)ccc3ncc21` [Example 67, 8-(6-Amino-5-(trifluoromethyl)pyridin-3-yl)-3-methyl-1-(quinolin-6-yl)-1H-imidazo[4,5-c]quinolin-2 (3H)-one]: the concentration for half-maximal inhibition (IC50) in the experiment with PC3 was found to be 0.015 µM; in the experiment on MDA MB 468, 0.05 µM; in the experiment on MDA MB 231 it was 0.012 µM; with BxPC3, 0.0085 µM; in the experiment on MCF7, 0.02 µM; in the experiment with BT 549 it was 0.011 µM. Besides, the results for the 50% inhibitory concentration (IC50) in the experiment with AsPC 1, in the experiment with PANC 1 and in the experiment with A2780 were 0.035 µM, 0.025 µM and 0.006 µM, respectively.
